pKi: −log10 of the molar value. Square brackets hold non-standard residues; d marks the D form. Peptide text beside a SMILES is read from it. Phe(2-Cl) = N[C@@H](Cc1ccccc1Cl)C(=O)O; Cha = N[C@@H](CC1CCCCC1)C(=O)O
Each compound was assayed against T1, Androgen receptor (Homo sapiens, UniProt P10275) (assay: Displacement of fluorescein-CSSRFESLFAGEKESR from human androgen receptor-LBD after 1 hr by fluorescence polarization assay).
T1 sequence (P10275 whole entry): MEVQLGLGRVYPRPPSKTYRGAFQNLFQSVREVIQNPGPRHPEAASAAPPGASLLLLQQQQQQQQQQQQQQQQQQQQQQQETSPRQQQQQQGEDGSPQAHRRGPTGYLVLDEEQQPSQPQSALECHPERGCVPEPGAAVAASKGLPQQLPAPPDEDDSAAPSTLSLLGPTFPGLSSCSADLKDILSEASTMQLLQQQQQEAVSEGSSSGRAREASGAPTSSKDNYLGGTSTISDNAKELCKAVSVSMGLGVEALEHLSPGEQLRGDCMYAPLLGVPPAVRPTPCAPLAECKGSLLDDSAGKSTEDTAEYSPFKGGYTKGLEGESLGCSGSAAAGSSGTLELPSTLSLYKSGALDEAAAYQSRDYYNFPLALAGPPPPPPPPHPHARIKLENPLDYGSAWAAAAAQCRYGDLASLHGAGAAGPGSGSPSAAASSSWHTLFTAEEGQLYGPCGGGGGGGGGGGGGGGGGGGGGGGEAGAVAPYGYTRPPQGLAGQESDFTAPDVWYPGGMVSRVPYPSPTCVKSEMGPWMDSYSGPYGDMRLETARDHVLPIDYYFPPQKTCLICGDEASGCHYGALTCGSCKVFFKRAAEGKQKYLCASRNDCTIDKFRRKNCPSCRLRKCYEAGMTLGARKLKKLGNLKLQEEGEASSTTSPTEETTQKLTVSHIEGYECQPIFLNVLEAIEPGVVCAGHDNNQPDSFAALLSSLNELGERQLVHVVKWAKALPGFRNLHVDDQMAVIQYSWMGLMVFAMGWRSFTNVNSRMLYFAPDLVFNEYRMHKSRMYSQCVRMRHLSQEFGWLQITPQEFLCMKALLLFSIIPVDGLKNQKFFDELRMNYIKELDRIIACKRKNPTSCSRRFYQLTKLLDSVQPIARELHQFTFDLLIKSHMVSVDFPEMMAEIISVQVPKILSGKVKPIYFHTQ

Structure (SMILES) | pKi
CC[C@H](C)[C@H](NC(=O)[C@H](CS)NC(=O)[C@H](Cc1ccccc1Cl)NC(=O)[C@H](CC(C)C)NC(=O)[C@H](CCC(=O)O)NC(=O)[C@H](CS)NC(=O)[C@H](Cc1ccccc1)NC(=O)[C@H](CCCNC(=N)N)NC(=O)[C@@H](N)CC(N)=O)C(=O)N[C@@H](CCC(N)=O)C(=O)NCC(=O)N[C@H](C(=O)NCC(=O)N[C@@H](CC(=O)O)C(=O)N[C@H](C(=O)N[C@@H](CCCCN)C(=O)N[C@@H](C)C(=O)N[C@@H](CS)C(=O)N[C@@H](CCC(=O)O)C(=O)N[C@@H](Cc1c[nH]c2ccccc12)C(=O)N[C@@H](C)C(=O)N[C@@H](CS)C(=O)N[C@@H](CCC(N)=O)C(=O)O)C(C)C)[C@@H](C)O (H-NRFCEL[Phe(2-Cl)]CIQGTGDVKACEWACQ-OH) | 6.40
CC[C@H](C)[C@H](NC(=O)[C@H](CS)NC(=O)[C@H](Cc1ccccc1)NC(=O)[C@H](CC(C)C)NC(=O)[C@H](CCC(=O)O)NC(=O)[C@H](CS)NC(=O)[C@H](Cc1ccccc1)NC(=O)[C@H](CCCNC(=N)N)NC(=O)[C@@H](N)CC(N)=O)C(=O)N[C@@H](CCC(N)=O)C(=O)NCC(=O)N[C@H](C(=O)NCC(=O)N[C@@H](CC(=O)O)C(=O)N[C@H](C(=O)N[C@@H](CCCCN)C(=O)N[C@@H](C)C(=O)N[C@@H](CS)C(=O)N[C@@H](CCC(=O)O)C(=O)N[C@@H](CCC(=O)O)C(=O)N[C@@H](C)C(=O)N[C@@H](CS)C(=O)N[C@@H](CCC(N)=O)C(=O)O)C(C)C)[C@@H](C)O (H-NRFCELFCIQGTGDVKACEEACQ-OH) | 5.89
CC[C@H](C)[C@H](NC(=O)[C@H](CS)NC(=O)[C@H](Cc1ccccc1)NC(=O)[C@H](CC(C)C)NC(=O)[C@H](CCC(=O)O)NC(=O)[C@H](CS)NC(=O)[C@H](Cc1ccccc1Cl)NC(=O)[C@H](CCCNC(=N)N)NC(=O)[C@@H](N)CC(N)=O)C(=O)N[C@@H](CCC(N)=O)C(=O)NCC(=O)N[C@H](C(=O)NCC(=O)N[C@@H](CC(=O)O)C(=O)N[C@H](C(=O)N[C@@H](CCCCN)C(=O)N[C@@H](C)C(=O)N[C@@H](CS)C(=O)N[C@@H](CCC(=O)O)C(=O)N[C@@H](Cc1c[nH]c2ccccc12)C(=O)N[C@@H](C)C(=O)N[C@@H](CS)C(=O)N[C@@H](CCC(N)=O)C(=O)O)C(C)C)[C@@H](C)O (H-NR[Phe(2-Cl)]CELFCIQGTGDVKACEWACQ-OH) | 5.66
CC[C@H](C)[C@H](NC(=O)[C@H](CS)NC(=O)[C@H](Cc1ccccc1)NC(=O)[C@H](CC(C)C)NC(=O)[C@H](CCC(=O)O)NC(=O)[C@H](CS)NC(=O)[C@H](Cc1ccccc1)NC(=O)[C@H](CCCNC(=N)N)NC(=O)[C@@H](N)CC(N)=O)C(=O)N[C@@H](CCC(=O)O)C(=O)NCC(=O)N[C@H](C(=O)NCC(=O)N[C@@H](CC(=O)O)C(=O)N[C@H](C(=O)N[C@@H](CCCCN)C(=O)N[C@@H](C)C(=O)N[C@@H](CS)C(=O)N[C@@H](CCC(=O)O)C(=O)N[C@@H](Cc1c[nH]c2ccccc12)C(=O)N[C@@H](C)C(=O)N[C@@H](CS)C(=O)N[C@@H](CCC(N)=O)C(=O)O)C(C)C)[C@@H](C)O (H-NRFCELFCIEGTGDVKACEWACQ-OH) | 5.68
CC(C)C[C@H](NC(=O)[C@H](CS)NC(=O)[C@H](CC(N)=O)NC(=O)[C@H](CC1CCCCC1)NC(=O)[C@H](Cc1ccc(O)cc1)NC(=O)[C@H](CS)NC(=O)[C@H](C)N)C(=O)N[C@@H](Cc1ccccc1)C(=O)N[C@@H](CCC(=O)O)C(=O)NCC(=O)N[C@@H](CC(N)=O)C(=O)N[C@@H](CC(=O)O)C(=O)N[C@@H](CCC(=O)O)C(=O)N[C@@H](CCC(=O)O)C(=O)N[C@H](C(=O)N[C@@H](CS)C(=O)N[C@@H](CCCCN)C(=O)N[C@@H](CCC(=O)O)C(=O)N[C@@H](Cc1c[nH]c2ccccc12)C(=O)N[C@@H](CS)C(=O)O)[C@@H](C)O (H-ACY[Cha]NCLFEGNDEETCKEWC-OH) | 5.52
CC[C@H](C)[C@H](NC(=O)[C@H](CS)NC(=O)[C@H](Cc1ccccc1)NC(=O)[C@H](CC(C)C)NC(=O)[C@H](CCC(=O)O)NC(=O)[C@H](CS)NC(=O)[C@H](Cc1ccccc1)NC(=O)[C@H](CCCNC(=N)N)NC(=O)[C@@H](N)CC(N)=O)C(=O)N[C@@H](CCC(N)=O)C(=O)NCC(=O)N[C@H](C(=O)N[C@@H](CCC(=O)O)C(=O)N[C@@H](CC(=O)O)C(=O)N[C@H](C(=O)N[C@@H](CCCCN)C(=O)N[C@@H](C)C(=O)N[C@@H](CS)C(=O)N[C@@H](CCC(=O)O)C(=O)N[C@@H](Cc1c[nH]c2ccccc12)C(=O)N[C@@H](C)C(=O)N[C@@H](CS)C(=O)N[C@@H](CCC(N)=O)C(=O)O)C(C)C)[C@@H](C)O (H-NRFCELFCIQGTEDVKACEWACQ-OH) | 5.52
CC[C@H](C)[C@H](NC(=O)[C@H](CS)NC(=O)[C@H](CC1CCCCC1)NC(=O)[C@H](CC(C)C)NC(=O)[C@H](CCC(=O)O)NC(=O)[C@H](CS)NC(=O)[C@H](Cc1ccccc1)NC(=O)[C@H](CCCNC(=N)N)NC(=O)[C@@H](N)CC(N)=O)C(=O)N[C@@H](CCC(N)=O)C(=O)NCC(=O)N[C@H](C(=O)NCC(=O)N[C@@H](CC(=O)O)C(=O)N[C@H](C(=O)N[C@@H](CCCCN)C(=O)N[C@@H](C)C(=O)N[C@@H](CS)C(=O)N[C@@H](CCC(=O)O)C(=O)N[C@@H](Cc1c[nH]c2ccccc12)C(=O)N[C@@H](C)C(=O)N[C@@H](CS)C(=O)N[C@@H](CCC(N)=O)C(=O)O)C(C)C)[C@@H](C)O (H-NRFCEL[Cha]CIQGTGDVKACEWACQ-OH) | 4.25
CC(C)C[C@H](NC(=O)[C@H](CS)NC(=O)[C@H](CC(N)=O)NC(=O)[C@H](Cc1ccccc1)NC(=O)[C@H](Cc1ccc(O)cc1)NC(=O)[C@H](CS)NC(=O)[C@H](C)N)C(=O)N[C@@H](Cc1ccccc1Cl)C(=O)N[C@@H](CCC(=O)O)C(=O)NCC(=O)N[C@@H](CC(N)=O)C(=O)N[C@@H](CC(=O)O)C(=O)N[C@@H](CCC(=O)O)C(=O)N[C@@H](CCC(=O)O)C(=O)N[C@H](C(=O)N[C@@H](CS)C(=O)N[C@@H](CCCCN)C(=O)N[C@@H](CCC(=O)O)C(=O)N[C@@H](Cc1c[nH]c2ccccc12)C(=O)N[C@@H](CS)C(=O)O)[C@@H](C)O (H-ACYFNCL[Phe(2-Cl)]EGNDEETCKEWC-OH) | 5.52
CC(C)C[C@H](NC(=O)[C@H](CS)NC(=O)[C@H](CC(N)=O)NC(=O)[C@H](Cc1ccccc1)NC(=O)[C@H](Cc1ccc(O)cc1)NC(=O)[C@H](CS)NC(=O)[C@H](C)N)C(=O)N[C@@H](Cc1ccccc1)C(=O)N[C@@H](CCC(=O)O)C(=O)NCC(=O)N[C@@H](CC(N)=O)C(=O)N[C@@H](CC(=O)O)C(=O)N[C@@H](CCC(=O)O)C(=O)N[C@@H](CCC(=O)O)C(=O)N[C@H](C(=O)N[C@@H](CS)C(=O)N[C@@H](CCCCN)C(=O)N[C@@H](CCC(=O)O)C(=O)N[C@@H](CCCNC(=N)N)C(=O)N[C@@H](CS)C(=O)O)[C@@H](C)O (H-ACYFNCLFEGNDEETCKERC-OH) | 5.70
CC[C@H](C)[C@H](NC(=O)[C@H](CS)NC(=O)[C@H](Cc1ccccc1)NC(=O)[C@H](CC(C)C)NC(=O)[C@H](CCC(=O)O)NC(=O)[C@H](CS)NC(=O)[C@H](Cc1ccccc1)NC(=O)[C@H](CCCNC(=N)N)NC(=O)[C@@H](N)CC(N)=O)C(=O)N[C@@H](CCC(N)=O)C(=O)N[C@@H](CC(=O)O)C(=O)N[C@H](C(=O)NCC(=O)N[C@@H](CC(=O)O)C(=O)N[C@H](C(=O)N[C@@H](CCCCN)C(=O)N[C@@H](C)C(=O)N[C@@H](CS)C(=O)N[C@@H](CCC(=O)O)C(=O)N[C@@H](Cc1c[nH]c2ccccc12)C(=O)N[C@@H](C)C(=O)N[C@@H](CS)C(=O)N[C@@H](CCC(N)=O)C(=O)O)C(C)C)[C@@H](C)O (H-NRFCELFCIQDTGDVKACEWACQ-OH) | 5.68

— ChEMBL document CHEMBL3132744, “Structureactivity relationship studies of miniproteins targeting the androgen receptorcoactivator interaction” (Medchemcomm, 2013)
